Tests used:
P-4E-BP1 (T37/46) = experiment: Cell based AlphaLISA assay, inhibition of P-4E-BP1 (T37/46) in MDA-MB-468 cells (mTORC1 substrate); details: AlphaLisa, two to four hours at 37° C.; for IC50: Homo sapiens, 4 h, read-out: pIC50 for Inhibition of mTORC1 and mTORC2 Substrate Phosphorylation P-4E-BP1-(T37/46) (converted)
Protocol: (§1) Cell Based AlphaLISA Assays For Determining IC50 For Inhibition of P-Akt (S473), P-4E-BP1(T37/46), and P-P70S6K (T389) in MDA-MB-468 Cells
(§2) mTOR Kinase Cellular Assay
(§3) To measure functional activity of mTORC1 and mTORC2 in cells the phosphorylation of 4EBPT (Thr37/46) and P70S6K (Thr389), and AKT1/2/3 (Ser473) was monitored using AlphaLisa SureFire Ultra Kits (Perkin Elmer). […] Incubations were terminated by removal of the assay buffer and addition of lysis buffer provided with the assay kit. Samples were processed according to the manufacturer's instructions. The Alpha signal from the respective phosphoproteinswas measured in duplicate using a microplate reader (Envision, Perkin-Elmer or Spectramax M5, Molecular Devices). Inhibitor concentration response curves were analyzed using normalized IC50 regression curve filling with control based normalization.

P-Akt (S473) = experiment: Cell based AlphaLISA assay, inhibition of P-Akt (S473) in MDA-MB-468 cells (mTORC2 substrate); details: AlphaLisa, two to four hours at 37° C.; for IC50: Homo sapiens, 4 h, read-out: pIC50 for Inhibition of mTORC1 and mTORC2 Substrate Phosphorylation p-AKT1/2/3-(S473) (converted)
Protocol: as §1, §2, §3

P-P70S6K (T389) = experiment: Cell based AlphaLISA assay, inhibition of P-P70S6K (T389) in MDA-MB-468 cells (mTORC1 substrate); details: AlphaLisa, two to four hours at 37° C.; for IC50: Homo sapiens, 4 h, read-out: pIC50 for Inhibition of mTORC1 and mTORC2 Substrate Phosphorylation p-P70S6K-(T389) (converted)
Protocol: as §1, §2, §3

Row | SMILES | IC50 (P-4E-BP1 (T37/46)) [nM] | IC50 (P-Akt (S473)) [nM] | IC50 (P-P70S6K (T389)) [nM] | pIC50 for Inhibition of mTORC1 and mTORC2 Substrate Phosphorylation P-4E-BP1-(T37/46) (P-4E-BP1 (T37/46)) | pIC50 for Inhibition of mTORC1 and mTORC2 Substrate Phosphorylation p-AKT1/2/3-(S473) (P-Akt (S473)) | pIC50 for Inhibition of mTORC1 and mTORC2 Substrate Phosphorylation p-P70S6K-(T389) (P-P70S6K (T389))
1 | CO[C@H]1C[C@@H]2CC[C@@H](C)[C@@](O)(O2)C(=O)C(=O)N2CCCC[C@H]2C(=O)O[C@H]([C@H](C)C[C@@H]2CC[C@@H](OC(=O)NCc3cnc(N4CCN(c5ncc(C(=O)NCCOCCOCCOCCOCCC(=O)N6CCc7cc(Cn8nc(-c9cnc%10[nH]ccc%10c9)c9c(N)ncnc98)ccc7C6)c(N)n5)CC4)nc3)[C@H](OC)C2)CC(=O)[C@H](C)/C=C(\C)[C@@H](O)[C@@H](OC)C(=O)[C@H](C)C[C@H](C)/C=C/C=C/C=C/1C [Example 96] | < 3.16 | 31.6 to 1000 | < 1 | – | – | –
2 | CO[C@H]1C[C@@H]2CC[C@@H](C)[C@@](O)(O2)C(=O)C(=O)N2CCCC[C@H]2C(=O)O[C@H]([C@H](C)C[C@@H]2CC[C@@H](OC(=O)N3CCc4nc(N5CCN(c6ncc(C(=O)NCCOCCOCCOCCOCCC(=O)N7CCc8cc(Cn9nc(-c%10cnc%11[nH]ccc%11c%10)c%10c(N)ncnc%109)ccc8C7)c(N)n6)CC5)ncc4C3)[C@H](OC)C2)CC(=O)[C@H](C)/C=C(\C)[C@@H](O)[C@@H](OC)C(=O)[C@H](C)C[C@H](C)/C=C/C=C/C=C/1C [Example 97] | < 3.16 | 3.16 to 31.6 | < 1 | – | – | –
3 | CO[C@H]1C[C@@H]2CC[C@@H](C)[C@@](O)(O2)C(=O)C(=O)N2CCCC[C@H]2C(=O)O[C@H]([C@H](C)C[C@@H]2CC[C@@H](OC(=O)NC3CCN(CC(=O)NCCOCCOCCOCCOCCOCCOCCC(=O)N4CCc5cc(Cn6nc(-c7ccc8oc(N)nc8c7)c7c(N)ncnc76)ccc5C4)CC3)[C@H](OC)C2)C[C@@H](O)[C@H](C)/C=C(\C)[C@@H](O)[C@@H](OC)C(=O)[C@H](C)C[C@H](C)/C=C/C=C/C=C/1C [Example 98] | < 3.16 | 3.16 to 31.6 | < 1 | – | – | –
4 | CO[C@H]1C[C@@H]2CC[C@@H](C)[C@@](O)(O2)C(=O)C(=O)N2CCCC[C@H]2C(=O)O[C@H]([C@H](C)C[C@@H]2CC[C@@H](OC(=O)NC3CCN(CC(=O)NCCOCCOCCOCCOCCOCCOCCC(=O)N4CCc5cc(Cn6nc(-c7ccc8oc(N)nc8c7)c7c(N)ncnc76)ccc5C4)CC3)[C@H](OC)C2)C[C@@H](OC)[C@H](C)/C=C(\C)[C@@H](O)[C@@H](OC)C(=O)[C@H](C)C[C@H](C)/C=C/C=C/C=C/1C [Example 99] | < 3.16 | > 1000 | < 1 | – | – | –
5 | CO[C@H]1C[C@@H]2CC[C@@H](C)[C@@](O)(O2)C(=O)C(=O)N2CCCC[C@H]2C(=O)O[C@H]([C@H](C)C[C@@H]2CC[C@@H](OC(=O)N3CCC(N)(C(=O)NCCOCCOCCOCCOCCOCCOCCC(=O)N4CCc5cc(Cn6nc(-c7ccc8oc(N)nc8c7)c7c(N)ncnc76)ccc5C4)CC3)[C@H](OC)C2)C[C@@H](O)[C@H](C)/C=C(\C)[C@@H](O)[C@@H](OC)C(=O)[C@H](C)C[C@H](C)/C=C/C=C/C=C/1C [Example 101] | < 3.16 | 3.16 to 31.6 | < 1 | – | – | –
6 | CO[C@H]1C[C@@H]2CC[C@@H](C)[C@@](O)(O2)C(=O)C(=O)N2CCCC[C@H]2C(=O)O[C@H]([C@H](C)C[C@@H]2CC[C@@H](OC(=O)NCc3cnc(N4CCN(C(=O)CN(C)CC(=O)NCCOCCOCCC(=O)N5CCc6cc(Cn7nc(-c8ccc9oc(N)nc9c8)c8c(N)ncnc87)ccc6C5)CC4)nc3)[C@H](OC)C2)C[C@@H](OC)[C@H](C)/C=C(\C)[C@@H](O)[C@@H](OC)C(=O)[C@H](C)C[C@H](C)/C=C/C=C/C=C/1C [Example 103] | – | – | – | − (<6) | − (<6) | +++ (≥9)
7 | CO[C@H]1C[C@@H]2CC[C@@H](C)[C@@](O)(O2)C(=O)C(=O)N2CCCC[C@H]2C(=O)O[C@H]([C@H](C)C[C@@H]2CC[C@@H](OC(=O)NCc3cnc(N4CCN(c5ncc(C(=O)NCCOCCOCCOCCOCCC(=O)N6CCc7cc(Cn8nc(-c9ccc%10oc(N)nc%10c9)c9c(N)ncnc98)ccc7C6)cn5)[C@@H](C(=O)O)C4)nc3)[C@H](OC)C2)CC(=O)[C@H](C)/C=C(\C)[C@@H](O)[C@@H](OC)C(=O)[C@H](C)C[C@H](C)/C=C/C=C/C=C/1C [Example 105] | – | – | – | ++ (8.5 > pIC50 ≥ 7.5) | − (<6) | +++ (≥9)
8 | CO[C@H]1C[C@@H]2CC[C@@H](C)[C@@](O)(O2)C(=O)C(=O)N2CCCC[C@H]2C(=O)O[C@H]([C@H](C)C[C@@H]2CC[C@@H](OC(=O)NCc3cnc(N4CCN(c5ncc(C(=O)N(C)CCOCCOCCOCCOCCC(=O)N6CCc7cc(Cn8nc(-c9ccc%10oc(N)nc%10c9)c9c(N)ncnc98)ccc7C6)c(N)n5)CC4)nc3)[C@H](OC)C2)C[C@@H](OC)[C@H](C)/C=C(\C)[C@@H](O)[C@@H](OC)C(=O)[C@H](C)C[C@H](C)/C=C/C=C/C=C/1C [Example 107] | – | – | – | − (<6) | − (<6) | +++ (≥9)
9 | CO[C@H]1C[C@@H]2CC[C@@H](C)[C@@](O)(O2)C(=O)C(=O)N2CCCC[C@H]2C(=O)O[C@H]([C@H](C)C[C@@H]2CC[C@@H](OC(=O)NCc3cnc(N4CCN(c5ncc(C(=O)NCCOCCOCCOCCOCCC(=O)N6CCc7cc(Cn8nc(-c9cnc%10[nH]ccc%10c9)c9c(N)ncnc98)ccc7C6)c(N)n5)CC4)nc3)[C@H](OC)C2)CC(=O)[C@H](C)/C=C(\C)[C@@H](O)[C@@H](OC)C(=O)[C@H](C)C[C@H](C)/C=C/C=C/C=C/1C [Example 108] | – | – | – | − (<6) | − (<6) | ++ (9 > pIC50 ≥ 8)
10 | CO[C@H]1C[C@@H]2CC[C@@H](C)[C@@](O)(O2)C(=O)C(=O)N2CCCC[C@H]2C(=O)O[C@H]([C@H](C)C[C@@H]2CC[C@@H](OC(=O)NCc3cnc(N4CCN(C(=O)CCOCCN5CCN(c6ncc(C(=O)N7CCc8cc(Cn9nc(-c%10ccc%11oc(N)nc%11c%10)c%10c(N)ncnc%109)ccc8C7)cn6)CC5)CC4)nc3)[C@H](OC)C2)CC(=O)[C@H](C)/C=C(\C)[C@@H](O)[C@@H](OC)C(=O)[C@H](C)C[C@H](C)/C=C/C=C/C=C/1C [Example 109] | > 1000 | > 1000 | 10 to 1000 | – | – | –
11 | CO[C@H]1C[C@@H]2CC[C@@H](C)[C@@](O)(O2)C(=O)C(=O)N2CCCC[C@H]2C(=O)O[C@H]([C@H](C)C[C@@H]2CC[C@@H](OC(=O)NCc3cnc(N4CCN(C(=O)CCOCCN5CCN(c6ncc(C(=O)N7CCc8cc(Cn9nc(-c%10cnc%11[nH]ccc%11c%10)c%10c(N)ncnc%109)ccc8C7)cn6)CC5)CC4)nc3)[C@H](OC)C2)CC(=O)[C@H](C)/C=C(\C)[C@@H](O)[C@@H](OC)C(=O)[C@H](C)C[C@H](C)/C=C/C=C/C=C/1C [Example 110] | > 1000 | > 1000 | 1 to 10 | – | – | –
12 | CO[C@H]1C[C@@H]2CC[C@@H](C)[C@@](O)(O2)C(=O)C(=O)N2CCCC[C@H]2C(=O)O[C@H]([C@H](C)C[C@@H]2CC[C@@H](OC(=O)NCc3cnc(N4CCN(c5ncc(C(=O)NCCOCCC(=O)N6CCN(c7ncc(C(=O)NCCCCn8nc(-c9ccc%10oc(N)nc%10c9)c9c(N)ncnc98)cn7)CC6)cn5)CC4)nc3)[C@H](OC)C2)CC(=O)[C@H](C)/C=C(\C)[C@@H](O)[C@@H](OC)C(=O)[C@H](C)C[C@H](C)/C=C/C=C/C=C/1C [Example 111] | < 3.16 | > 1000 | < 1 | – | – | –
13 | CO[C@H]1C[C@@H]2CC[C@@H](C)[C@@](O)(O2)C(=O)C(=O)N2CCCC[C@H]2C(=O)O[C@H]([C@H](C)C[C@@H]2CC[C@@H](OC(=O)NCc3cnc(N4CCN(C(=O)CCOCCN5CCN(c6ncc(C(=O)NCCCCn7nc(-c8ccc9oc(N)nc9c8)c8c(N)ncnc87)cn6)CC5)CC4)nc3)[C@H](OC)C2)CC(=O)[C@H](C)/C=C(\C)[C@@H](O)[C@@H](OC)C(=O)[C@H](C)C[C@H](C)/C=C/C=C/C=C/1C [Example 112] | > 1000 | > 1000 | < 1 | – | – | –
14 | CO[C@H]1C[C@@H]2CC[C@@H](C)[C@@](O)(O2)C(=O)C(=O)N2CCCC[C@H]2C(=O)O[C@H]([C@H](C)C[C@@H]2CC[C@@H](OC(=O)NCc3cnc(N4CCN(C(=O)CCOCCN5CCN(c6ncc(C(=O)N7CCc8cc(Cn9nc(-c%10ccc%11oc(N)nc%11c%10)c%10c(N)ncnc%109)ccc8C7)cn6)CC5)CC4)nc3)[C@H](OC)C2)C[C@@H](O)[C@H](C)/C=C(\C)[C@@H](O)[C@@H](OC)C(=O)[C@H](C)C[C@H](C)/C=C/C=C/C=C/1C [Example 113] | < 3.16 | 3.16 to 31.6 | < 1 | – | – | –
15 | CO[C@H]1C[C@@H]2CC[C@@H](C)[C@@](O)(O2)C(=O)C(=O)N2CCCC[C@H]2C(=O)O[C@H]([C@H](C)C[C@@H]2CC[C@@H](OC(=O)NCc3cnc(N4CCN(C(=O)CCOCCN5CCN(c6ncc(C(=O)N7CCc8cc(Cn9nc(-c%10ccc%11oc(N)nc%11c%10)c%10c(N)ncnc%109)ccc8C7)cn6)CC5)CC4)nc3)[C@H](OC)C2)C[C@@H](OC)[C@H](C)/C=C(\C)[C@@H](O)[C@@H](OC)C(=O)[C@H](C)C[C@H](C)/C=C/C=C/C=C/1C [Example 114] | < 3.16 | > 1000 | < 1 | – | – | –

Source: patent US10980889B1 (Revolution Medicines, Inc., priority 2018, dated 2021)
